Assay results reported in publication PMC12304826, “Redirecting the Peptide Cleavage Causes Protease Inactivation” (Angewandte Chemie (International Ed. in English), 2025).
Like-named read-outs stand apart in the source and are kept apart here.

Assays:
human cathepsin L = biological target: T1, human cathepsin L (Homo sapiens, UniProt P07711); test: Cathepsin L inhibition assay (Cbz-Phe-Arg-pNA); assay type: biochemical
T1 construct: purchased Enzo Life Sciences, Lörrach, Germany
Experimental: 1. Enzyme Inhibition Assays and Kinetic Data of Inhibition of Cathepsins B, L, K and S General. Human cathepsins were assayed either fluorimetrically or spectrophotometrically as noted below. The 10 mM inhibitor solutions were prepared in DMSO. The final concentration of DMSO in all assays was 2%. Non-linear regressions were conducted with GraFit 5. Residual cathepsin activity at an inhibitor concentration of 20 µM was determined from duplicate measurements based on the product formation after 60 min. Concentration dependent measurements were performed in duplicate measurements with five different inhibitor concentrations when the residual cathepsin activity in the presence of 20 µM inhibitor was below 70% (cathepsin B) or below 50% (cathepsins cathepsins L, K, and S). Progress curves were monitored for 60 min. First-order rate constants, kobs, were determined by non-linear regression following the equation [P] = vi × (1 – exp(-kobs × t))/kobs + d, where [P] is the product concentration, vi is the initial product formation rate, kobs is the observed first-order rate constant, and d is the offset. Mean values of kobs were plotted versus corresponding inhibitor concentrations [I], and second-order rate constants of inactivation, kinac/Ki, were obtained by linear regression. The equation kobs/[I] = (kinac/Ki)/(1 + [S]/Km) was used, where [S] is the substrate concentration and Km is the Michaelis-Menten constant. Standard errors (SE) refer to the linear regression. […] Cathepsin L inhibition assay.[1] Human isolated cathepsin L (Enzo Life Sciences, Lörrach, Germany) was assayed spectrophotometrically on a Cary 50 or 100 Bio, Varian, at 405 nm. The reactions were followed at 37 °C. Assay buffer was 100 mM sodium phosphate buffer pH 6.0, 100 mM NaCl, 5 mM EDTA, and 0.01% Brij 35. A stock solution of human cathepsin L of 135 μg/mL in 20 mM malonate buffer pH 5.5, 400 mM NaCl, and 1 mM EDTA was diluted 1:100 with assay buffer containing 5 mM DTT and incubated for 30 min at 37 °C. A 10 mM stock solution of the chromogenic substrate Cbz-Phe-Arg-pNA was prepared in DMSO. The final concentration of the substrate was 100 μM (= 5.88 Km).
Into a cuvette containing 940 μL assay buffer, inhibitor solution and DMSO in a total volume of 10 μL, and 10 μL of the substrate solution were added and mixed. The reaction was initiated by adding 40 μL of the cathepsin L solution.

human cathepsin S = biological target: T2, human cathepsin S (Homo sapiens, UniProt P25774); test: Cathepsin S inhibition assay (Cbz-Phe-Arg-AMC); assay type: biochemical
T2 construct: purchased Enzo Life Sciences, Lörrach, Germany
Experimental: 1. Enzyme Inhibition Assays and Kinetic Data of Inhibition of Cathepsins B, L, K and S General. Human cathepsins were assayed either fluorimetrically or spectrophotometrically as noted below. The 10 mM inhibitor solutions were prepared in DMSO. The final concentration of DMSO in all assays was 2%. Non-linear regressions were conducted with GraFit 5. Residual cathepsin activity at an inhibitor concentration of 20 µM was determined from duplicate measurements based on the product formation after 60 min. Concentration dependent measurements were performed in duplicate measurements with five different inhibitor concentrations when the residual cathepsin activity in the presence of 20 µM inhibitor was below 70% (cathepsin B) or below 50% (cathepsins cathepsins L, K, and S). Progress curves were monitored for 60 min. First-order rate constants, kobs, were determined by non-linear regression following the equation [P] = vi × (1 – exp(-kobs × t))/kobs + d, where [P] is the product concentration, vi is the initial product formation rate, kobs is the observed first-order rate constant, and d is the offset. Mean values of kobs were plotted versus corresponding inhibitor concentrations [I], and second-order rate constants of inactivation, kinac/Ki, were obtained by linear regression. The equation kobs/[I] = (kinac/Ki)/(1 + [S]/Km) was used, where [S] is the substrate concentration and Km is the Michaelis-Menten constant. Standard errors (SE) refer to the linear regression. […]
methyl-coumarin (AMC)-based fluorogenic substrate Cbz-Leu-Arg-AMC was prepared in DMSO. The final concentration of the substrate was 40 μM (= 13.3 Km). When using the spectrofluorometer, into a cuvette containing 960 μL assay buffer, inhibitor solution and DMSO in a total volume of 16 μL, and 4 […]
When using the plate reader, into a well containing 192 µL assay buffer, inhibitor solution and DMSO in a total volume of 3.2 µL and 0.8 µL of the substrate solution were added and mixed. The reaction was initiated by adding 4 µL of the cathepsin K solution.
Cathepsin S inhibition assay.[2] Human recombinant cathepsin S (Enzo Life Sciences, Lörrach, […]
nm and for emission 440 nm. The reactions were followed at 25 °C. Assay buffer was 100 mM sodium phosphate buffer pH 6.0, 100 mM NaCl, 5 mM EDTA, and 0.01% Brij 35. A stock solution of human cathepsin S of 70 μg/mL in 100 mM MES buffer, pH 6.5, 1 mM EDTA, 50 mM L-cysteine, 10 mM DTT, 0.5% Triton X-100 and 30% glycerol was diluted 1:100 with a 50 mM sodium phosphate buffer pH 6.5, 50 mM NaCl, 2 mM EDTA, 0.01% Triton X-100 and 5 mM DTT and incubated for 60 min at 37 °C. A 10 mM stock solution of the fluorogenic substrate Cbz-Phe-Arg-AMC was prepared in DMSO.
The assay was performed with a final substrate concentration of 40 µM (= 0.74 Km). When using the spectrofluorometer, into a cuvette containing 920 μL assay buffer, inhibitor solution and DMSO in a total volume of 16 μL, and 4 μL of the substrate solution were added and mixed. The reaction was initiated by adding 60 μL of the cathepsin S solution. When using the plate reader, into a well containing 188 µL assay buffer, inhibitor solution and DMSO in a total volume of 3.2 µL and 0.8 µL of the substrate solution were added and mixed. The reaction was initiated by adding […] of the cathepsin S solution.

[1] = 20 µM inhibitor, 60 min, read-out: Residual activity @ 20 µM (%) Cat L
[2] = 20 µM inhibitor, 60 min, read-out: Residual activity @ 20 µM (%) Cat S
[3] = inhibitor not soluble at 20 µM, calculated for 20 µM from IC50 at two lower concentrations, read-out: Residual activity @ 20 µM (%) Cat L, approximated [e]
[4] = inhibitor not soluble at 20 µM, calculated for 20 µM from IC50 at two lower concentrations, read-out: Residual activity @ 20 µM (%) Cat S, approximated [e]

T1 sequence (P07711 114-333): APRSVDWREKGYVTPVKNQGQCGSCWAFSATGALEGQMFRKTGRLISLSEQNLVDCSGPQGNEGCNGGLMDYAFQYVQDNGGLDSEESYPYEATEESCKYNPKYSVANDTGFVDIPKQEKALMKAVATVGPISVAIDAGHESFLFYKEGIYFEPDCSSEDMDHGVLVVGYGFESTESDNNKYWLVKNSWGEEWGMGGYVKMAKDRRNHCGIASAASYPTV
T2 sequence (P25774 115-331): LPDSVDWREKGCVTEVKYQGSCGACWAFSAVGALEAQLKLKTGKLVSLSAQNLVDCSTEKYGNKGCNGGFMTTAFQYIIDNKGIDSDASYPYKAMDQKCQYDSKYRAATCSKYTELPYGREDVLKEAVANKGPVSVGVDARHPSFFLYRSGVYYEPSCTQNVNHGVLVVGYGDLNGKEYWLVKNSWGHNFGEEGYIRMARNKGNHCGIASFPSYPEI

| SMILES | remaining activity at 20 µM (human cathepsin L; [1]) | remaining activity at 20 µM (human cathepsin S; [2]) | remaining activity at 20 µM (human cathepsin L; [3]) | remaining activity at 20 µM (human cathepsin S; [4]) | kinac/Ki ± SE Cat S (human cathepsin S; five inhibitor concentrations, 60 min progress curves) |
| --- | --- | --- | --- | --- | --- |
| CC(C)CC(OC(=O)Nc1ccc(Cl)cc1)C(=O)N1CCC[C@H]1C(=O)O (stereo partly drawn) [Compound 17] | 94% | 93% |  |  |  |
| CC(C)C[C@H](NC(=O)Oc1ccc(NC(=O)Cc2ccccc2)c(Cl)c1)C(=O)N1CCC[C@H]1C(=O)O [Compound 24] | 97% | 90% |  |  |  |
| CC(C)C[C@H](NC(=O)Oc1ccc(Cl)cc1)C(=O)N[C@@H](Cc1ccccc1)C(=O)OC(C)(C)C [Compound 2] | 96% | ≥ 98% |  |  |  |
| CC(C)CC(NC(=O)Oc1ccccc1)C(=O)NC(Cc1ccccc1)C(=O)O (stereo not drawn) [Compound 1] | 94% | 97% |  |  |  |
| CC(C)C[C@H](NC(=O)Oc1ccc(Cl)cc1)C(=O)N1CCC[C@H]1C(=O)O [Compound 8] | 97% | ≥ 98% |  |  |  |
| CC(C)C[C@H](NC(=O)Oc1ccc(Cl)cc1)C(=O)N[C@@H](Cc1ccccc1)C(=O)O [Compound 4] | 92% | 83% |  |  |  |
| CC(C)C[C@@H](C(=O)N1CCC[C@H]1C(=O)O)N(C)C(=O)Oc1ccc(Cl)cc1 [Compound 15] | 97% | ≥ 98% |  |  |  |
| O=C(NC(CC1CCCCC1)C(=O)NC(Cc1ccccc1)C(=O)O)Oc1ccc(NC(=O)C(Cc2ccccc2)Cc2ccccc2)c(Cl)c1 (stereo not drawn) [Compound 31] |  |  | 76% | 46% |  |
| CC(C)C[C@H](NC(=O)Oc1ccc(Cl)cc1)C(=O)N1CCCC[C@H]1C(=O)O [Compound 10] | 91% | ≥ 98% |  |  |  |
| CC(C)CC(NC(=O)Oc1ccc(NC(=O)C(c2ccccc2)c2ccccc2)c(Cl)c1)C(=O)N1CCCC1C(=O)O (stereo not drawn) [Compound 28] |  | 58% | 62% |  |  |
| CC(C)CC(NC(=O)Oc1ccc(NC(=O)C(c2ccccc2)c2ccccc2)c(Cl)c1)C(=O)NC(Cc1ccccc1)C(=O)O (stereo not drawn) [Compound 29] |  |  | 70% | 63% |  |
| CC(C)C[C@H](NC(=O)Oc1ccc(-c2ccccc2)c(NC(=O)Cc2ccccc2)c1)C(=O)N1CCC[C@H]1C(=O)O [Compound 21] | 92% | 89% |  |  |  |
| CC(C)CC(NC(=O)Oc1ccc(Cl)c(NC(=O)C(c2ccccc2)c2ccccc2)c1)C(=O)N1CCCC1C(=O)O (stereo not drawn) [Compound 22] |  | 87% | 59% |  |  |
| CC(C)CC(NC(=O)Oc1ccc(NC(=O)C(c2ccccc2)c2ccccc2)c(Br)c1)C(=O)N1CCCC1C(=O)O (stereo not drawn) [Compound 27] | 81% | 60% |  |  |  |
| O=C(NC(CC1CCCCC1)C(=O)NC(Cc1ccccc1)C(=O)O)Oc1ccc(Cl)cc1 (stereo not drawn) [Compound 7] | 86% | 72% |  |  |  |
| CC(C)C[C@H](NC(=O)Oc1cccc(Cl)c1)C(=O)N1CCC[C@H]1C(=O)O [Compound 23] | 92% | 89% |  |  |  |
| CC(C)C[C@H](NC(=O)Nc1ccc(Cl)cc1)C(=O)N1CCC[C@H]1C(=O)O [Compound 19] | 96% | ≥ 98% |  |  |  |
| CC(C)C[C@H](NC(=O)Oc1ccc(NC(=O)N(Cc2ccccc2)Cc2ccccc2)c(Br)c1)C(=O)N1CCC[C@H]1C(=O)O [Compound 26] |  | 59% |  |  |  |
| CC(C)C[C@H](NC(=O)Nc1ccc(Cl)cc1)C(=O)N[C@@H](Cc1ccccc1)C(=O)O [Compound 18] | 94% | 78% |  |  |  |
| CC(C)C[C@H](NC(=O)Oc1ccc(Cl)c(NC(=O)Cc2ccccc2)c1)C(=O)N1CCC[C@H]1C(=O)O [Compound 20] | 96% | 93% |  |  |  |
| CC(C)CC(OC(=O)Nc1ccc(Cl)cc1)C(=O)N[C@@H](Cc1ccccc1)C(=O)O (stereo partly drawn) [Compound 16] | 95% | 56% |  |  |  |
| CC(C)CC(CNC(=O)Oc1ccc(Cl)cc1)C(=O)N1CCC[C@@H]1C(=O)O (stereo partly drawn) [Compound 9] | 95% | 92% |  |  |  |
| O=C(NC(CC1CCCCC1)C(=O)NC(Cc1ccccc1)C(=O)O)Oc1ccc(NC(=O)C(c2ccccc2)c2ccccc2)c(Cl)c1 (stereo not drawn) [Compound 30] |  |  | 64% | 42% |  |
| CC(C)CC(CNC(=O)Oc1ccc(Cl)cc1)C(=O)N[C@H](Cc1ccccc1)C(=O)O (stereo partly drawn) [Compound 5] | 90% |  |  |  | 10.2 M⁻¹ s⁻¹ |
| COC(=O)C(Cc1ccccc1)NC(=O)C(CC(C)C)NC(=O)Oc1ccc(Cl)cc1 (stereo not drawn) [Compound 3] | 85% | 79% |  |  |  |
| CC(C)CC(NC(=O)Oc1ccc(NC(=O)c2ccc(-c3ccccc3)cc2)c(Cl)c1)C(=O)N1CCCC1C(=O)O (stereo not drawn) [Compound 25] | 94% |  |  | 53% |  |
